Our source for the EC50 and CC50 values is patent US8536187B2 (Gilead Sciences, Inc., priority 2008, dated 2013).

The test system of series [1] is HCV replicon in human hepatoma Huh-7 cell line. Description: Anti-HCV replicon assay, EC50 (luciferase luminescence). The series is classed as cell-based. Particulars: Hepatitis C virus, Huh-7, 72 h. As to the method: (§1) The anti-HCV activity of the pyrido[3,2-d]pyrimidine derivatives of this invention was tested in a human hepatoma Huh-7 cell line harboring a HCV replicon. The assay comprised the following steps: • Step 1: compound preparation and serial dilution: serial dilution is performed in 50% DMSO in a 384-well plate. A solution containing a compound at 100-fold concentration of the starting final serial dilution concentration was prepared in 50% DMSO and added to the pre-specified wells in column 1 of a polypropylene 384-well plate. The plate was then placed on a Precision 2000 Workstation to start the serial dilution. After the serial dilution, a volume of 2 μL of the solution was transferred from the 384-well plate to a 96-well cell culture plate containing 100 μL of cell media on a Biomek FX Workstation. The DMSO concentration in the final assay condition was 0.5% after cells are added to the plate and the total volume in each well is brought to 200 μL. • Step 2: to each well of the serial dilution plate prepared above, 100 μL of cell media containing 6000 suspended Huh-7 HCV replicon cells was added with a Multidrop workstation. The plates were incubated for 3 days at 37° C. with 5% CO2. • Step 3: detection: • a) for the EC50 assay, the media in a 96-well cell culture plate was aspirated with a Biotek EL405 plate-washer. A volume of 200 μL of a solution containing a 1:1 mixture of cell-lysis buffer (Promega, Luciferase Cell Culture Lysis 5× Reagent, cat. #E1531) and luciferase substrate solution (Promega, Luciferase Assay, cat.# E4550) was added to each well of the plate with Multidrop. The plate was incubated for 30 minutes at room temperature before the luminescence signal was measured with a TopCount plate-reader. • b) for the CC50 assay, a volume of 100 μL of pre-mixed CellTiter-Glo (Promega, cat.# G7572) solution is added directly to the cell culture in each well of the plate and the luminescence signal is measured with a TopCount plate-reader after 10 minutes of incubation at room temperature.
Background: Replicon systems follow genome replication, usually without infectious particles.

A short description of series [2]: CC50 assay (CellTiter-Glo) in Huh-7 HCV replicon cells. The series is classed as cell-based. Particulars: human. As to the method:
as §1
Background: In ATP-based viability assays light output follows the ATP content of the culture.

As usually defined, the EC50 is the concentration that produces a half-maximal response. Low readings indicate greater potency, high ones weaker potency. A word on the CC50: it is the concentration at which the toxic effect on the cells reaches its halfway point. A low value points to greater toxicity to the cells. `CS(=O)(=O)c1cccc(-c2ccc3nc(NCc4ccc(-n5cncn5)cc4)nc(OC4CC4)c3n2)c1` [Example 188, N-(4-(1H-1,2,4-triazol-1-yl)benzyl)-4-cyclopropoxy-6-(3-(methylsulfonyl)phenyl) pyrido[3,2-d]pyrimidin-2-amine] displayed an EC50 in series [1] of under 100 nM. Further, in series [2] (Table 2, 3 days incubation), the CC50 at 3 days is over 10000 nM.

In series [1], `CCOc1nc(NCc2ccc(-n3cncn3)cc2)nc2ccc(-c3cccc(S(C)(=O)=O)c3)nc12` [Example 190, N-(4-(1H-1,2,4-triazol-1-yl)benzyl)-4-ethoxy-6-(3-(methylsulfonyl)phenyl)pyrido [3,2-d]pyrimidin-2-amine] registered an EC50 of under 100 nM. Besides, in series [2] (Table 2, 3 days incubation), the CC50 at 3 days is over 10000 nM.

Consider `COCc1ccc(-c2ccc3nc(NCc4ccc(S(N)(=O)=O)cc4)nc(NC4(C(F)(F)F)CC4)c3n2)cc1S(C)(=O)=O` [Example 30, 4-{[6-(3-methanesulfonyl-4-methoxymethylphenyl)-4-(1-trifluoromethyl-cyclopropylamino)-pyrido[3,2-d]pyrimidin-2-ylamino]-methyl}-benzenesulfonamide], for which the EC50 in series [1] was under 100 nM. In series [2] (Table 2, 3 days incubation), the CC50 at 3 days is over 10000 nM.

On to `COc1ccc(-c2ccc3nc(NCc4ccc(S(N)(=O)=O)cc4)nc(NCC(F)(F)F)c3n2)cc1C(F)(F)F` [Example 228, 4-((6-(4-methoxy-3-(trifluoromethyl)phenyl)-4-(2,2,2-trifluoroethylamino)pyrido[3,2-d]pyrimidin-2-ylamino)methyl)benzene-sulfonamide], for which, in series [1], the EC50 was in the range of 250 to 2000 nM. Moreover, the CC50 at 3 days in series [2] (Table 2, 3 days incubation) is over 10000 nM.

Take `CS(=O)(=O)c1cccc(-c2ccc3nc(NCCO)nc(NCC(F)(F)F)c3n2)c1` [Example 162, 2-(6-(3-(methylsulfonyl)phenyl)-4-(2,2,2-trifluoroethyl-amino)pyrido[3,2-d]pyrimidin-2-ylamino)ethanol]: the 50% effective concentration (EC50) in series [1] is 250 to 2000 nM. This molecule also had a CC50 at 3 days in series [2] (Table 2, 3 days incubation) of over 10000 nM.

For `C[C@@H](Nc1nc(NCC(F)(F)F)c2nc(-c3ccc(Cl)c(S(C)(=O)=O)c3)ccc2n1)c1ccc(S(N)(=O)=O)cc1` [Example 155, 4-((R)-1-(6-(4-chloro-3-(methylsulfonyl)phenyl)-4-(2,2,2-trifluoroethylamino)pyrido[3,2-d]pyrimidin-2-ylamino)ethyl)benzene-sulfonamide], in series [1], the 50% effective concentration (EC50) is under 100 nM. Also, the CC50 at 3 days in series [2] (Table 2, 3 days incubation) lay within 1000 to 10000 nM.

As to `C#Cc1ccc2nc(NCc3ccc(S(N)(=O)=O)cc3)nc(NCC(F)(F)F)c2n1` [Example 288, 4-((6-ethynyl-4-(2,2,2-trifluoroethylamino)pyrido [3,2-d]pyrimidin-2-ylamino)methyl)benzenesulfonamide], the EC50 in series [1] is under 100 nM. In series [2] (Table 2, 3 days incubation), this molecule displayed a CC50 at 3 days of 1000 to 10000 nM.

For the molecule `NS(=O)(=O)c1cc(CNc2nc(NC3(C(F)(F)F)CC3)c3nc(-c4ccc(F)cc4)ccc3n2)ccc1F` [Example 25, 2-fluoro-5-{[6-(4-fluorophenyl)-4-(1-trifluoromethyl-cyclopropylamino)-pyrido[3,2-d]pyrimidin-2-ylamino]-methyl}-benzenesulfonamide], the EC50 in series [1] was under 100 nM. In addition, the CC50 at 3 days in series [2] (Table 2, 3 days incubation) was over 10000 nM.

With `NS(=O)(=O)c1cc(CNc2nc(NC3(C(F)(F)F)CC3)c3nc(-c4ccc(F)cc4)ccc3n2)cc(C(F)(F)F)c1` [Example 26, 3-{[6-(4-fluorophenyl)-4-(1-trifluoromethyl-cyclopropylamino)-pyrido[3,2-d]pyrimidin-2-ylamino]-methyl}-5-trifluoromethyl-benzenesulfonamide], the EC50 in series [1] lay within 100 to 250 nM. In series [2] (Table 2, 3 days incubation), the CC50 at 3 days is over 10000 nM.

With `COc1ccc(-c2ccc3nc(NC(C)c4ccc(-n5cncn5)cc4)nc(NC4(C(F)(F)F)CC4)c3n2)cc1S(C)(=O)=O` (centres unmarked) [Example 97, N^2-(1-(4-(1H-1,2,4-triazol-1-yl)phenyl)ethyl)-6-(4-methoxy-3-(methylsulfonyl)phenyl)-N^4-(1-(trifluoromethyl)cyclopropyl)pyrido[3,2-d] pyrimidine-2,4-diamine], the EC50 in series [1] was under 100 nM. The CC50 at 3 days in series [2] (Table 2, 3 days incubation) was over 10000 nM.

In the case of `COc1ccc(-c2ccc3nc(NCCS(N)(=O)=O)nc(NCC(F)(F)F)c3n2)cc1S(C)(=O)=O` [Example 172, 2-(6-(4-methoxy-3-(methylsulfonyl)phenyl)-4-(2,2,2-trifluoroethylamino)pyrido[3,2-d]pyrimidin-2-ylamino)ethanesulfonamide], the EC50 in series [1] lay within 100 to 250 nM. In series [2] (Table 2, 3 days incubation), the CC50 at 3 days is over 10000 nM.

`COc1ccc(-c2ccc3nc(NCc4ccc(S(N)(=O)=O)cc4)nc(NCC(F)(F)F)c3n2)cc1S(=O)(=O)C(F)(F)F` [Example 165, 4-((6-(4-methoxy-3-(trifluoromethylsulfonyl)phenyl)-4-(2,2,2-trifluoroethylamino)pyrido[3,2-d]pyrimidin-2-ylamino)methyl)benzene-sulfonamide]: in series [1], the EC50 is under 100 nM. Besides, the CC50 at 3 days in series [2] (Table 2, 3 days incubation) is 1000 to 10000 nM.

As for `CS(=O)(=O)c1cc(-c2ccc3nc(NCc4ccc(S(N)(=O)=O)cc4)nc(NCC(F)(F)F)c3n2)ccc1F` [Example 21, 4-{[6-(4-Fluoro-3-methanesulfonyl-phenyl)-4-(2,2,2-trifluoro-ethylamino)-pyrido[3,2-d]pyrimidin-2-ylamino]-methyl}-benzenesulfonamide], in series [1], the EC50 is under 100 nM. The CC50 at 3 days in series [2] (Table 1, 3 days incubation) was over 25000 nM.

`C[C@@H](Nc1nc(NC2(C(F)(F)F)CCC2)c2nc(-c3ccc(F)cc3)ccc2n1)c1ccc(S(N)(=O)=O)cc1` [Example 72, (R)-4-(1-(6-(4-fluorophenyl)-4-(1-(trifluoromethyl)cyclo-butylamino)pyrido[3,2-d]pyrimidin-2-ylamino)ethyl) benzenesulfonamide] registered an EC50 in series [1] of 250 to 2000 nM. In series [2] (Table 2, 3 days incubation), this molecule showed a CC50 at 3 days of over 10000 nM.

`COCC#Cc1ccc2nc(N[C@H](C)c3ccc(S(N)(=O)=O)cc3)nc(NCC(F)(F)F)c2n1` [Example 277, (R)-4-(1-(6-(3-methoxyprop-1-ynyl)-4-(2,2,2-trifluoroethyl-amino)pyrido[3,2-d]pyrimidin-2-ylamino)ethyl)benzene-sulfonamide] had a concentration for a half-maximal effect (EC50) in series [1] of under 100 nM. The molecule further registered a CC50 at 3 days in series [2] (Table 2, 3 days incubation) of over 10000 nM.

Molecule `CS(=O)(=O)c1cc(-c2ccc3nc(NCc4cccnc4)nc(NCC(F)(F)F)c3n2)ccc1OC(F)F` [Example 178, 6-(4-(difluoromethoxy)-3-(methylsulfonyl)phenyl)-N^2-(pyridin-3-ylmethyl)-N^4-(2,2,2-trifluoroethyl)pyrido [3,2-d]pyrimidine-2,4-diamine] came in with a concentration for a half-maximal effect (EC50) in series [1] of under 100 nM. In addition, in series [2] (Table 2, 3 days incubation), the CC50 at 3 days was in the range of 1000 to 10000 nM.

As for `NS(=O)(=O)c1cc(F)cc(CNc2nc(NC3(C(F)(F)F)CC3)c3nc(C#CC4CC4)ccc3n2)c1` [Example 63, 3-((6-(2-cyclopropylethynyl)-4-(1-(trifluoromethyl)cyclopropylamino)pyrido[3,2-d]pyrimidin-2-ylamino)methyl)-5-fluorobenzenesulfonamide], the EC50 in series [1] was under 100 nM. Besides, the CC50 at 3 days in series [2] (Table 2, 3 days incubation) is over 10000 nM.

Regarding `CC[C@@H](Nc1nc(NCC(F)(F)F)c2nc(-c3ccc(OC)c(S(C)(=O)=O)c3)ccc2n1)c1ccc(S(N)(=O)=O)cc1` [Example 154, 4-((R)-1-(6-(4-methoxy-3-(methylsulfonyl)phenyl)-4-(2,2,2-trifluoroethylamino)pyrido[3,2-d]pyrimidin-2-ylamino)propyl)benzene-sulfonamide], in series [1], the EC50 was in the range of 100 to 250 nM. For the same molecule, in series [2] (Table 2, 3 days incubation), the CC50 at 3 days was over 10000 nM.

Turning to `Cc1ccc(-c2ccc3nc(N[C@H](C)c4ccc(S(N)(=O)=O)cc4)nc(NCC(F)(F)F)c3n2)cc1S(C)(=O)=O` [Example 152, 4-((R)-1-(6-(4-methyl-3-(methylsulfonyl)phenyl)-4-(2,2,2-trifluoroethylamino)pyrido[3,2-d]pyrimidin-2-ylamino)ethyl)benzene-sulfonamide], the EC50 in series [1] was under 100 nM. Further, the CC50 at 3 days in series [2] (Table 2, 3 days incubation) is over 10000 nM.

`FC(F)(F)CNc1nc(NCc2ccc(-n3cncn3)cc2)nc2ccc(C#CC3CC3)nc12` [Example 287, N^2-(4-(1H-1,2,4-triazol-1-yl)benzyl)-6-(2-cyclopropyl-ethynyl)-N^4-(2,2,2-trifluoroethyl) pyrido[3,2-d]pyrimidine-2,4-diamine]: in series [1], the concentration giving a half-maximal response (EC50) lay in the range of 100 to 250 nM. This molecule displayed a half-maximal cytotoxic concentration (CC50) at 3 days in series [2] (Table 2, 3 days incubation) of over 10000 nM.

For `CC1(Oc2nc(NCc3ccc(-n4cncn4)cc3)nc3ccc(-c4cnc(OC5CC5)nc4)nc23)CC1` [Example 257, N-(4-(1H-1,2,4-triazol-1-yl)benzyl)-6-(2-cyclopropoxy-pyrimidin-5-yl)-4-(1-methyl-cyclopropoxy)pyrido[3,2-d] pyrimidin-2-amine], in series [1], the EC50 was under 100 nM. In addition, in series [2] (Table 2, 3 days incubation), the CC50 at 3 days lay within 1000 to 10000 nM.

Molecule `CS(=O)(=O)c1cccc(-c2ccc3nc(NCc4cccc(-n5cncn5)c4)nc(NCC(F)(F)F)c3n2)c1` [Example 16, 6-(3-Methanesulfonyl-phenyl)-N2-(3-[1,2,4]-triazol-1-yl-benzyl)-N4-(2,2,2-trifluoro-ethyl)-pyrido[3,2-d]pyrimidine-2,4-diamine] came in with an EC50 in series [1] of under 100 nM. Besides, in series [2] (Table 1, 3 days incubation), the CC50 at 3 days was over 25000 nM.
